pIC50: −log10 of the molar value.
Molecular target: SREBP-2 (Homo sapiens (Human), UniProt Q12772)
Experiment: In vitro assay SREBP-2: PathHunter U2OS SREBP-2 Nuclear Translocation Cell Line, U18666A-stimulated
Format: cell-based
Settings: PathHunter U2OS SREBP-2 nuclear translocation cells, U18666A 10 μM, overnight (16 hours)

Row | Structure (SMILES) | pIC50
1 | CC(=N)N1CCN(C(=O)CC[C@@H](C)[C@H]2CC[C@H]3[C@@H]4CC=C5C[C@@H](O)CC[C@]5(C)[C@H]4CC[C@]23C)CC1 [Example 459, (R)-4-((3S,8S,9S,10R,13R,14S,17R)-3-hydroxy-10,13-dimethyl-2,3,4,7,8,9,10,11,12,13,14,15,16,17-tetradecahydro-1H-cyclopenta[a]phenanthren-17-yl)-1-(4-(1-iminoethyl)piperazin-1-yl)pentan-1-one] | 6.00 to 6.60
2 | C[C@H](OC(=O)N(C)C)[C@H]1CC[C@H]2[C@@H]3CC=C4C[C@@H](O)CC[C@]4(C)[C@H]3CC[C@]12C [Example 461, (1S)-1-[(1S,3aS,3bS,7S,9aR,9bS,11aS)-7-hydroxy-9a,11a-dimethyl-1H,2H,3H,3aH,3bH,4H,6H,7H,8H,9H,9aH,9bH,10H,11H,11aH-cyclopenta[a]phenanthren-1-yl]ethyl N,N-dimethylcarbamate] | 6.00 to 6.60
3 | COC(=O)NC[C@@H](C)[C@H]1CC[C@H]2[C@@H]3CC=C4C[C@@H](O)CC[C@]4(C)[C@H]3CC[C@]12C [Example 463, methyl ((S)-2-((3S,8S,9S,10R,13S,14S,17R)-3-hydroxy-10,13-dimethyl-2,3,4,7,8,9,10,11,12,13,14,15,16,17-tetradecahydro-1H-cyclopenta[a]phenanthren-17-yl)propyl)carbamate] | 6.00 to 6.60
4 | CNC(=O)NC[C@@H](C)[C@H]1CC[C@H]2[C@@H]3CC=C4C[C@@H](O)CC[C@]4(C)[C@H]3CC[C@]12C [Example 464, 1-((S)-2-((3S,8S,9S,10R,13S,14S,17R)-3-hydroxy-10,13-dimethyl-2,3,4,7,8,9,10,11,12,13,14,15,16,17-tetradecahydro-1H-cyclopenta[a]phenanthren-17-yl)propyl)-3-methylurea] | 6.00 to 6.60
5 | COC(=O)N1CCN(C(=O)OC[C@@H](C)[C@H]2CC[C@H]3[C@@H]4CC=C5C[C@@H](O)CC[C@]5(C)[C@H]4CC[C@]23C)CC1 [Example 465, 1-(2S)-2-[(1R,3aS,3bS,7S,9aR,9bS,11aS)-7-hydroxy-9a,11a-dimethyl-1H,2H,3H,3aH,3bH,4H,6H,7H,8H,9H,9aH,9bH,10H,11H,11aH-cyclopenta[a]phenanthren-1-yl]propyl 4-methyl piperazine-1,4-dicarboxylate] | > 6.60
6 | COC(=O)N1CCN(C(=O)O[C@@H](C)[C@H]2CC[C@H]3[C@@H]4CC=C5C[C@@H](O)CC[C@]5(C)[C@H]4CC[C@]23C)CC1 [Example 466, 1-(1S)-1-[(1S,3aS,3bS,7S,9aR,9bS,11aS)-7-hydroxy-9a,11a-dimethyl-1H,2H,3H,3aH,3bH,4H,6H,7H,8H,9H,9aH,9bH,10H,11H,11aH-cyclopenta[a]phenanthren-1-yl]ethyl 4-methyl piperazine-1,4-dicarboxylate] | 6.00 to 6.60
7 | COC(=O)N1CCN(C(=O)NC[C@@H](C)[C@H]2CC[C@H]3[C@@H]4CC=C5C[C@@H](O)CC[C@]5(C)[C@H]4CC[C@]23C)CC1 [Example 467, Methyl 4-(((S)-2-((3S,8S,9S,10R,13S,14S,17R)-3-hydroxy-10,13-dimethyl-2,3,4,7,8,9,10,11,12,13,14,15,16,17-tetradecahydro-1H-cyclopenta[a]phenanthren-17-yl)propyl)carbamoyl)piperazine-1-carboxylate] | > 6.60
8 | C[C@H](CCC(=O)N1CCC([C@H](O)C(F)(F)F)CC1)[C@H]1CC[C@H]2[C@@H]3CC=C4C[C@@H](O)CC[C@]4(C)[C@H]3CC[C@]12C [Example 468, (4R)-4-[(1R,3aS,3bS,7S,9aR,9bS,11aR)-7-hydroxy-9a,11a-dimethyl-1H,2H,3H,3aH,3bH,4H,6H,7H,8H,9H,9aH,9bH,10H,11H,11aH-cyclopenta[a]phenanthren-1-yl]-1-{4-[(1 S)-2,2,2-trifluoro-1-hydroxyethyl]piperidin-1-yl}pentan-1-one] | > 6.60
9 | C[C@H](CCC(=O)N1CCC(C(NS(C)(=O)=O)C(F)(F)F)CC1)[C@H]1CC[C@H]2[C@@H]3CC=C4C[C@@H](O)CC[C@]4(C)[C@H]3CC[C@]12C (stereo partly drawn) [Example 476, N-(2,2,2-trifluoro-1-(1-((R)-4-((3S,8S,9S,10R,13R,14S,17R)-3-hydroxy-10,13-dimethyl-2,3,4,7,8,9,10,11,12,13,14,15,16,17-tetradecahydro-1H-cyclopenta[a]phenanthren-17-yl)pentanoyl)piperidin-4-yl)ethyl)methanesulfonamide] | > 6.60
10 | C[C@H](CCC(=O)N1CCC(C(NC(=O)C(C)(C)O)C(F)(F)F)CC1)[C@H]1CC[C@H]2[C@@H]3CC=C4C[C@@H](O)CC[C@]4(C)[C@H]3CC[C@]12C (stereo partly drawn) [Example 479, 2-hydroxy-2-methyl-N-(2,2,2-trifluoro-1-(1-((R)-4-((3S,8S,9S,10R,13R,14S,17R)-3-hydroxy-10,13-dimethyl-2,3,4,7,8,9,10,11,12,13,14,15,16,17-tetradecahydro-1H-cyclopenta[a]phenanthren-17-yl)pentanoyl)piperidin-4-yl)ethyl)propanamide] | > 6.60
11 | Cc1noc(C2CCN(C(=O)CC[C@@H](C)[C@H]3CC[C@H]4[C@@H]5CC=C6C[C@@H](O)CC[C@]6(C)[C@H]5CC[C@]34C)CC2)n1 [Example 505, (R)-4-((3S,8S,9S,10R,13R,14S,17R)-3-hydroxy-10,13-dimethyl-2,3,4,7,8,9,10,11,12,13,14,15,16,17-tetradecahydro-1H-cyclopenta[a]phenanthren-17-yl)-1-(4-(3-methyl-1,2,4-oxadiazol-5-yl)piperidin-1-yl)pentan-1-one] | > 6.60
12 | Cc1noc(OC2CCN(C(=O)CC[C@@H](C)[C@H]3CC[C@H]4[C@@H]5CC=C6C[C@@H](O)CC[C@]6(C)[C@H]5CC[C@]34C)CC2)n1 [Example 506, (R)-4-((3S,8S,9S,10R,13R,14S,17R)-3-hydroxy-10,13-dimethyl-2,3,4,7,8,9,10,11,12,13,14,15,16,17-tetradecahydro-1H-cyclopenta[a]phenanthren-17-yl)-1-(4-((3-methyl-1,2,4-oxadiazol-5-yl)oxy)piperidin-1-yl)pentan-1-one] | > 6.60
13 | C[C@H](CCC(=O)N1CCC[C@H](Oc2cnn(C)c2)C1)[C@H]1CC[C@H]2[C@@H]3CC=C4C[C@@H](O)CC[C@]4(C)[C@H]3CC[C@]12C [Example 517, (4R)-4-[(1R,3aS,3bS,7S,9aR,9bS,11aR)-7-hydroxy-9a,11a-dimethyl-1H,2H,3H,3aH,3bH,4H,6H,7H,8H,9H,9aH,9bH,10H,11H,11aH-cyclopenta[a]phenanthren-1-yl]-1-[(3S)-3-[(1-methyl-1H-pyrazol-4-yl)oxy]piperidin-1-yl]pentan-1-one] | > 6.60
14 | C[C@H](CCC(=O)N1CCC[C@@H](Oc2cnn(C)c2)C1)[C@H]1CC[C@H]2[C@@H]3CC=C4C[C@@H](O)CC[C@]4(C)[C@H]3CC[C@]12C [Example 518, (4R)-4-[(1R,3aS,3bS,7S,9aR,9bS,11aR)-7-hydroxy-9a,11a-dimethyl-1H,2H,3H,3aH,3bH,4H,6H,7H,8H,9H,9aH,9bH,10H,11H,11aH-cyclopenta[a]phenanthren-1-yl]-1-[(3R)-3-[(1-methyl-1H-pyrazol-4-yl)oxy]piperidin-1-yl]pentan-1-one] | > 6.60
15 | C[C@H](CCC(=O)N1CCC[C@H](Oc2ccncc2)C1)[C@H]1CC[C@H]2[C@@H]3CC=C4C[C@@H](O)CC[C@]4(C)[C@H]3CC[C@]12C [Example 520, (R)-4-((3S,8S,9S,10R,13R,14S,17R)-3-hydroxy-10,13-dimethyl-2,3,4,7,8,9,10,11,12,13,14,15,16,17-tetradecahydro-1H-cyclopenta[a]phenanthren-17-yl)-1-((S)-3-(pyridin-4-yloxy)piperidin-1-yl)pentan-1-one] | > 6.60
16 | C[C@H](CCC(=O)N1CCC[C@@H](Oc2ccncc2)C1)[C@H]1CC[C@H]2[C@@H]3CC=C4C[C@@H](O)CC[C@]4(C)[C@H]3CC[C@]12C [Example 521, (R)-4-((3S,8S,9S,10R,13R,14S,17R)-3-hydroxy-10,13-dimethyl-2,3,4,7,8,9,10,11,12,13,14,15,16,17-tetradecahydro-1H-cyclopenta[a]phenanthren-17-yl)-1-((R)-3-(pyridin-4-yloxy)piperidin-1-yl)pentan-1-one] | > 6.60
17 | C[C@H](CCC(=O)N1CCC(CN2CCOC(C)(C)C2=O)CC1)[C@H]1CC[C@H]2[C@@H]3CC=C4C[C@@H](O)CC[C@]4(C)[C@H]3CC[C@]12C [Example 522, 4-({1-[(4R)-4-[(1R,3aS,3bS,7S,9aR,9bS,11aR)-7-hydroxy-9a,11a-dimethyl-1H,2H,3H,3aH,3bH,4H,6H,7H,8H,9H,9aH,9bH,10H,11H,11aH-cyclopenta[a]phenanthren-1-yl]pentanoyl]piperidin-4-yl}methyl)-2,2-dimethylmorpholin-3-one] | > 6.60
18 | C[C@H](CCC(=O)N1CCC(C)(CN2CCOC(C)(C)C2=O)CC1)[C@H]1CC[C@H]2[C@@H]3CC=C4C[C@@H](O)CC[C@]4(C)[C@H]3CC[C@]12C [Example 523, 4-((1-((R)-4-((3S,8S,9S,10R,13R,14S,17R)-3-hydroxy-10,13-dimethyl-2,3,4,7,8,9,10,11,12,13,14,15,16,17-tetradecahydro-1H-cyclopenta[a]phenanthren-17-yl)pentanoyl)-4-methylpiperidin-4-yl)methyl)-2,2-dimethylmorpholin-3-one] | > 6.60
19 | C[C@H](CCC(=O)N1CCC(N2CCOC(C)(C)C2=O)CC1)[C@H]1CC[C@H]2[C@@H]3CC=C4C[C@@H](O)CC[C@]4(C)[C@H]3CC[C@]12C [Example 524, 4-(1-((R)-4-((3S,8S,9S,10R,13R,14S,17R)-3-hydroxy-10,13-dimethyl-2,3,4,7,8,9,10,11,12,13,14,15,16,17-tetradecahydro-1H-cyclopenta[a]phenanthren-17-yl)pentanoyl)piperidin-4-yl)-2,2-dimethylmorpholin-3-one] | 6.00 to 6.60
20 | C[C@H](CCC(=O)N1CCC(N2CCOCC2=O)CC1)[C@H]1CC[C@H]2[C@@H]3CC=C4C[C@@H](O)CC[C@]4(C)[C@H]3CC[C@]12C [Example 525, 4-(1-((R)-4-((3S,8S,9S,10R,13R,14S,17R)-3-hydroxy-10,13-dimethyl-2,3,4,7,8,9,10,11,12,13,14,15,16,17-tetradecahydro-1H-cyclopenta [a]phenanthren-17-yl)pentanoyl)piperidin-4-yl)morpholin-3-one] | > 6.60
